# Values of other authors, collected in patent publication US7838281B2, “Sulfide bath” (Soothing Sulfur Spas, LLC, priority 2007, dated 2010).
# Conditions: aqueous solution
compound,measurement,value
O=C(O)O [HCO3^−],pK for the HCO3^−/CO2,6.2
S [HS^−],pK for the HS^−/S^−2,14
